Assay results reported in patent publication US8178506B2, “Oligomeric compounds and compositions for use in modulation of small non-coding RNAs” (Regulus Therapeutics Inc., priority 2003, dated 2012).
In the oligonucleotide strings, read from the 5' end, every base follows the letter of its sugar. An asterisk marks phosphorothioate; unmarked linkages are phosphodiester. Other units and linkages are bracketed, terminal groups are in braces. A string of capitals states the bases alone. e = 2'-O-(2-methoxyethyl) (MOE); [5mC] = 5-methylcytosine; d = 2'-deoxy (DNA)

Key:
Format in all cases: cell-based, human
Glut4 = Glut4 mRNA expression in adipocytes (real-time PCR); conditions: for Glut4: Table 20, adipocyte differentiation assay as in Example 13
adipocytes = test: Triglyceride accumulation assay in adipocytes; conditions: for TG: Table 20, adipocyte differentiation assay as in Example 13
aP2 = aP2 mRNA expression in adipocytes (real-time PCR); conditions: for aP2 mRNA: Table 75; for AP2: Table 20, adipocyte differentiation assay as in Example 13
HSL = HSL mRNA expression in adipocytes (real-time PCR); conditions: for HSL: Table 20, adipocyte differentiation assay as in Example 13
PPARγ = PPARγ mRNA expression in adipocytes (real-time PCR); conditions: for PPAR gamma: Table 20, adipocyte differentiation assay as in Example 13
[1] = Table 17, differentiating adipocytes, control = treatment with ISIS 342673
[2] = differentiating adipocytes transfected with oligomeric compound, Table 75
[3] = differentiating adipocytes transfected with oligomeric compound
[4] = Table 18, differentiating adipocytes, control = treatment with ISIS 342673

328137 (eG*eT*eA*eA*eG*e[5mC]*eG*e[5mC]*eA*eG*e[5mC]*eT*e[5mC]*e[5mC]*eA*e[5mC]*eA*eG*eG*e[5mC]*eT; anti-miR) [compound 328137]
GLUT4 mRNA (Glut4; [1]): 88.5 percentage of control
GLUT4 mRNA (Glut4; [2]): 29 percentage of untreated control (UTC)
TG (triglyceride accumulation) (adipocytes; [1]): 83.2 percentage of control
TG (triglyceride accumulation) (adipocytes; [2]): 37 percentage of untreated control (UTC)
AP2 mRNA (aP2; [1]): 99.6 percentage of control
aP2 mRNA (aP2; [3]): 45 percentage of untreated control (UTC)
HSL mRNA (HSL; [1]): 86.3 percentage of control
HSL mRNA (HSL; [2]): 25 percentage of untreated control (UTC)
PPAR gamma mRNA (PPARγ; [1]): 85.7 percentage of control
PPAR gamma mRNA (PPARγ; [2]): 36 percentage of untreated control (UTC)

328138 (eG*eA*eG*e[5mC]*eT*eG*e[5mC]*eT*e[5mC]*eA*eG*e[5mC]*eT*eG*eG*e[5mC]*e[5mC]*eA*eT*e[5mC]*eA; anti-miR) [compound 328138]
GLUT4 mRNA (Glut4; [1]): 86.8 percentage of control
GLUT4 mRNA (Glut4; [2]): 52 percentage of untreated control (UTC)
TG (triglyceride accumulation) (adipocytes; [1]): 100.6 percentage of control
TG (triglyceride accumulation) (adipocytes; [2]): 80 percentage of untreated control (UTC)
AP2 mRNA (aP2; [1]): 85.3 percentage of control
aP2 mRNA (aP2; [3]): 52 percentage of untreated control (UTC)
HSL mRNA (HSL; [1]): 89.8 percentage of control
HSL mRNA (HSL; [2]): 56 percentage of untreated control (UTC)
PPAR gamma mRNA (PPARγ; [1]): 83.8 percentage of control
PPAR gamma mRNA (PPARγ; [2]): 63 percentage of untreated control (UTC)

328362 (eT*eG*eT*eG*eT*dT*dT*dT*d[5mC]*dT*dG*dA*d[5mC]*dT*d[5mC]*eA*eG*eT*e[5mC]*eA) [compound 328362]
GLUT4 mRNA (Glut4; [3]): 80 percentage of untreated control (UTC)
TG (triglyceride accumulation) (adipocytes; [3]): 73 percentage of untreated control (UTC)
AP2 mRNA (aP2; [3]): 59 percentage of untreated control (UTC)
HSL mRNA (HSL; [3]): 83 percentage of untreated control (UTC)
PPAR gamma mRNA (PPARγ; [3]): 78 percentage of untreated control (UTC)

328382 (e[5mC]*eA*eG*eA*e[5mC]*dT*d[5mC]*d[5mC]*d[5mC]*dA*dA*d[5mC]*dT*dG*dA*e[5mC]*e[5mC]*eA*eG*eA) [compound 328382]
Glut4 (Glut4): 0.85
TG (adipocytes): 0.72
AP2 (aP2): 0.89
HSL (HSL): 0.75
PPAR gamma (PPARγ): 0.96

328677 (eT*e[5mC]*e[5mC]*eT*eG*dG*dA*dT*dG*dA*dT*dA*dT*d[5mC]*dT*eA*e[5mC]*e[5mC]*eT*e[5mC]; antisense) [compound 328677]
GLUT4 mRNA (Glut4; [3]): 44 percentage of untreated control (UTC)
TG (triglyceride accumulation) (adipocytes; [3]): 34 percentage of untreated control (UTC)
AP2 mRNA (aP2; [3]): 61 percentage of untreated control (UTC)
HSL mRNA (HSL; [3]): 68 percentage of untreated control (UTC)
PPAR gamma mRNA (PPARγ; [3]): 89 percentage of untreated control (UTC)

328685 (e[5mC]*eG*eG*e[5mC]*e[5mC]*dG*dG*dA*dG*d[5mC]*d[5mC]*dA*dT*dA*dG*eA*e[5mC]*eT*e[5mC]*eG; antisense) [compound 328685]
GLUT4 mRNA (Glut4; [3]): 69 percentage of untreated control (UTC)
TG (triglyceride accumulation) (adipocytes; [3]): 50 percentage of untreated control (UTC)
AP2 mRNA (aP2; [3]): 73 percentage of untreated control (UTC)
HSL mRNA (HSL; [3]): 100 percentage of untreated control (UTC)
PPAR gamma mRNA (PPARγ; [3]): 91 percentage of untreated control (UTC)

328691 (e[5mC]*e[5mC]*e[5mC]*e[5mC]*eA*dT*d[5mC]*dT*dT*dA*dG*d[5mC]*dA*dT*d[5mC]*eT*eA*eA*eG*eG) [compound 328691]
GLUT4 mRNA (Glut4; [3]): 144 percentage of untreated control (UTC)
TG (triglyceride accumulation) (adipocytes; [3]): 130 percentage of untreated control (UTC)
AP2 mRNA (aP2; [3]): 166 percentage of untreated control (UTC)
HSL mRNA (HSL; [3]): 156 percentage of untreated control (UTC)
PPAR gamma mRNA (PPARγ; [3]): 105 percentage of untreated control (UTC)

328759 (antisense eG*eA*eG*eG*eG*dA*dT*dT*dG*dT*dA*dT*dG*dA*dA*e[5mC]*eA*eT*e[5mC]*eT) [compound 328759]
GLUT4 mRNA (Glut4; [3]): 66 percentage of untreated control (UTC)
TG (triglyceride accumulation) (adipocytes; [3]): 87 percentage of untreated control (UTC)
AP2 mRNA (aP2; [3]): 108 percentage of untreated control (UTC)
HSL mRNA (HSL; [3]): 105 percentage of untreated control (UTC)
PPAR gamma mRNA (PPARγ; [3]): 95 percentage of untreated control (UTC)

338664 (antisense e[5mC]*eA*eG*eA*e[5mC]*eT*e[5mC]*e[5mC]*e[5mC]*eA*eA*e[5mC]*eT*eG*eA*e[5mC]*e[5mC]*eA*eG*eA) [compound 338664]
Glut4 (Glut4): 1.81
TG (adipocytes): 1.42
AP2 (aP2): 1.01
HSL (HSL): 0.76
PPAR gamma (PPARγ): 0.86

340350 (antisense TGCTCAATAAATACCCGTTGAA; all 2'-MOE, all phosphorothioate, methylation of C not given here) [compound 340350]
GLUT4 mRNA (Glut4; [2]): 53 percentage of untreated control (UTC)
TG (triglyceride accumulation) (adipocytes; [2]): 38 percentage of untreated control (UTC)
aP2 mRNA (aP2; [3]): 64 percentage of untreated control (UTC)
HSL mRNA (HSL; [2]): 45 percentage of untreated control (UTC)
PPAR gamma mRNA (PPARγ; [2]): 59 percentage of untreated control (UTC)

340927 (antisense eT*eG*eA*eG*e[5mC]*dT*dA*d[5mC]*dA*dG*dT*dG*d[5mC]*dT*dT*e[5mC]*eA*eT*e[5mC]*eT*e[5mC]*eA) [compound 340927]
Glut4 (Glut4): 0.54
TG (adipocytes): 0.65
AP2 (aP2): 0.77
HSL (HSL): 0.73
PPAR gamma (PPARγ): 0.36

341800 (antisense AAGCCCAAAAGGAGAAUUCUUUG; all 2'-MOE, all phosphorothioate, methylation of C and T or U not given here) [compound 341800]
GLUT4 mRNA (Glut4; [2]): 28 percentage of untreated control (UTC)
TG (triglyceride accumulation) (adipocytes; [2]): 18 percentage of untreated control (UTC)
aP2 mRNA (aP2; [3]): 50 percentage of untreated control (UTC)
HSL mRNA (HSL; [2]): 42 percentage of untreated control (UTC)
PPAR gamma mRNA (PPARγ; [2]): 61 percentage of untreated control (UTC)

341803 (antisense CCACACACTTCCTTACATTCCA; all 2'-MOE, all phosphorothioate, methylation of C not given here) [compound 341803]
GLUT4 mRNA (Glut4; [4]): 86.8 percentage of control
GLUT4 mRNA (Glut4; [2]): 73 percentage of untreated control (UTC)
TG (triglyceride accumulation) (adipocytes; [4]): 85.9 percentage of control
AP2 mRNA (aP2; [4]): 77.3 percentage of control
aP2 mRNA (aP2; [3]): 85 percentage of untreated control (UTC)
HSL mRNA (HSL; [4]): 75.5 percentage of control
HSL mRNA (HSL; [2]): 79 percentage of untreated control (UTC)
PPAR gamma mRNA (PPARγ; [4]): 71.2 percentage of control
PPAR gamma mRNA (PPARγ; [2]): 68 percentage of untreated control (UTC)

341804 (antisense ATCTGCACTGTCAGCACTTT; all 2'-MOE, all phosphorothioate, methylation of C not given here) [compound 341804]
GLUT4 mRNA (Glut4; [4]): 73.6 percentage of control
GLUT4 mRNA (Glut4; [2]): 62 percentage of untreated control (UTC)
TG (triglyceride accumulation) (adipocytes; [4]): 60.9 percentage of control
AP2 mRNA (aP2; [4]): 70.8 percentage of control
aP2 mRNA (aP2; [3]): 78 percentage of untreated control (UTC)
HSL mRNA (HSL; [4]): 71.6 percentage of control
HSL mRNA (HSL; [2]): 75 percentage of untreated control (UTC)
PPAR gamma mRNA (PPARγ; [4]): 74.1 percentage of control
PPAR gamma mRNA (PPARγ; [2]): 71 percentage of untreated control (UTC)

341805 (antisense ACCCTTATCAGTTCTCCGTCCA; all 2'-MOE, all phosphorothioate, methylation of C not given here) [compound 341805]
GLUT4 mRNA (Glut4; [4]): 88.2 percentage of control
GLUT4 mRNA (Glut4; [2]): 74 percentage of untreated control (UTC)
TG (triglyceride accumulation) (adipocytes; [4]): 78.1 percentage of control
AP2 mRNA (aP2; [4]): 81.9 percentage of control
aP2 mRNA (aP2; [3]): 90 percentage of untreated control (UTC)
HSL mRNA (HSL; [4]): 81.8 percentage of control
HSL mRNA (HSL; [2]): 86 percentage of untreated control (UTC)
PPAR gamma mRNA (PPARγ; [4]): 80.4 percentage of control
PPAR gamma mRNA (PPARγ; [2]): 77 percentage of untreated control (UTC)

341806 (antisense GCCAATATTTCTGTGCTGCTA; all 2'-MOE, all phosphorothioate, methylation of C not given here) [compound 341806]
GLUT4 mRNA (Glut4; [4]): 69.4 percentage of control
GLUT4 mRNA (Glut4; [2]): 58 percentage of untreated control (UTC)
TG (triglyceride accumulation) (adipocytes; [4]): 83.2 percentage of control
AP2 mRNA (aP2; [4]): 75.8 percentage of control
aP2 mRNA (aP2; [3]): 83 percentage of untreated control (UTC)
HSL mRNA (HSL; [4]): 73.4 percentage of control
HSL mRNA (HSL; [2]): 77 percentage of untreated control (UTC)
PPAR gamma mRNA (PPARγ; [4]): 72.6 percentage of control
PPAR gamma mRNA (PPARγ; [2]): 70 percentage of untreated control (UTC)

341807 (antisense CTGGGACTTTGTAGGCCAGTT; all 2'-MOE, all phosphorothioate, methylation of C not given here) [compound 341807]
GLUT4 mRNA (Glut4; [4]): 119.5 percentage of control
GLUT4 mRNA (Glut4; [2]): 101 percentage of untreated control (UTC)
TG (triglyceride accumulation) (adipocytes; [4]): 114.1 percentage of control
AP2 mRNA (aP2; [4]): 74.8 percentage of control
aP2 mRNA (aP2; [3]): 82 percentage of untreated control (UTC)
HSL mRNA (HSL; [4]): 96.8 percentage of control
HSL mRNA (HSL; [2]): 102 percentage of untreated control (UTC)
PPAR gamma mRNA (PPARγ; [4]): 86.2 percentage of control
PPAR gamma mRNA (PPARγ; [2]): 83 percentage of untreated control (UTC)
